Read-outs that look alike come from different tables or passages of the source. Each block holds one compound with its values, some of them ahead of it.
Tests used:
DLD-1 BRCA2−/− cells = experiment: Homologous recombination synthetic lethal inhibition of proliferation, DLD-1 BRCA2-/- (Cell Titre Glo 3D); format: cell-based; settings: Homo sapiens, read-out: POLQ PD Prolif Lumin (converted)
Method in brief: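 Isogenic DLD-1 pair; BRCA2−/− seeded 3,000 cells/mL and read day 12, wt seeded 1,500 cells/mL and read day 7. 10-pt titration (top 10 μM, 3-fold), re-fed with compound day 6, 37 °C/5% CO2. CTG 3D endpoint; IC50 at 50% signal loss.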

DLD-1 cells = experiment: Inhibition of proliferation, DLD-1 BRCA2 wt control (Cell Titre Glo 3D); format: cell-based; settings: Homo sapiens, read-out: POLQ PD Prolif Lumin (converted)
From the text: This assay identifies anti-proliferative effects of POLQ compounds in the homologous recombination deficient colorectal cell line DLD-1 BRCA2−/− over 8-9 population doublings (7 days for DLD-1 and 12 days for DLD-1 BRCA2−/−). DLD1 BRCA2 wt are used as a control to detect cell toxic effects not specific to homologous recombination deficiency.
DLD-1 BRCA2−/− and DLD-1 cells were kept in continuous culture in Assay Medium (RPMI 1640 phenol red free (Sigma R7509) containing 1% GlutaMAX (Gibco 35050) and 10% Foetal Bovine Serum (Gibco 10270-106)). On the day of the assay cells in culture of ˜80-90% confluent were used. Cell monolayers were washed with 10 mL PBS, then removed and added 2 mL TrypLE Express (Gibco 12604). The cells with TrypLE Express were incubated for 5 minutes in cell culture incubator and then the detached cells resuspend in 15 mL Assay Medium. Cells were counted using a ViCell and the cell images were monitored for clumps of cells, ideally they should be single or <3 cell clusters. The cells were diluted to 3,000 cells/mL of DLD-1 BRCA2−/− and 1,500 cells/mL of DLD-1 in Assay Medium and 100 μL added per well of transparent bottomed, black, tissue culture-treated 96-well plates (CoStar, No. 3904) Assay Ready Plates. The Assay Ready Plates contain a 10 point 10 μM to 0.51 nM dose range with three-fold dilutions in DMSO with a final volume of 100 nL. The plates were incubated at 37° C. with 5% C02 for 6 days. On day 6, 100 μL/well of Assay Medium was added to duplicate Assay Ready Plates. 90 μL of culture medium was removed from the cell plates and replenished with the Assay Media and compounds from the duplicate Assay Ready Plates using the Bravo. The plates were further incubated at 37° C. with 5% CO2. On day 7 the plates containing DLD-1 and Cell Titre Glo 3D (Promega G9683) were equilibrated to room temperature, then 60 μL of Cell Titre Glo 3D was added per well and incubated on a shaking platform for 30 min. Plates were read on the Envision measuring luminescence for 1 second per well. On day 12 the plates containing DLD-1 BRCA2−/− cells and Cell Titre Glo 3D (Promega G9683) were equilibrated to room temperature, then 60 μL Cell Titre Glo 3D added per well and incubated on a shaking platform for 30 min. Plates were read on the Envision measuring luminescence for 1 second per well. The data was exported into a suitable software package (such as Genedata) to perform curve fitting analysis. Inhibition of cell proliferation was expressed as an IC5o value and was determined by calculation of the concentration of compound that was required to give a 50% reduction of the average maximum Total Intensity signal.

[1] = DLD-1, DLD-1 BRCA2-/- proliferation, column head only partly shown
[2] = DLD-1, DLD-1 BRCA2 wt control proliferation, column head only partly shown
[3] = DLD-1, proliferation, luminescence, taken as DLD-1 BRCA2-/-
[4] = DLD-1, proliferation, luminescence, second Prolif column (c6), taken as DLD-1 BRCA2 wt control
[5] = DLD-1, first proliferation column (c5), DLD-1 BRCA2-/-
[6] = DLD-1, second proliferation column (c6), DLD-1 BRCA2 wt control

IC50 (DLD-1 cells; [2]): > 10000 nM
Compound: CC(CCOc1ccc(-c2nc3c(OC4(C)CC4)ncnc3n2Cc2cc(Cl)ccc2F)c(Cl)c1)C(=O)O (racemic) [Example T268, 4-(3-chloro-4-(9-(5-chloro-2-fluorobenzyl)-6-(1-methylcyclopropoxy)-9H-purin-8-yl)phenoxy)-2-methylbutanoic acid]
IC50 (DLD-1 BRCA2−/− cells; [1]): 63.1 nM

IC50 (DLD-1 cells; [2]): > 10000 nM
Compound: CC(CCOc1ccc(-c2nc3c(OC(C)(C)C(F)(F)F)ncnc3n2Cc2cccc(Cl)c2)c(Cl)c1)C(=O)O (racemic) [Example T274, 4-(3-chloro-4-(9-(3-chlorobenzyl)-6-((1,1,1-trifluoro-2-methylpropan-2-yl)oxy)-9H-purin-8-yl)phenoxy)-2-methylbutanoic acid]
IC50 (DLD-1 BRCA2−/− cells; [1]): 316 nM

IC50 (DLD-1 cells; [2]): > 10000 nM
Compound: CC(CCOc1ccc(-c2nc3c(OC4(C)CC4)ncnc3n2Cc2cc(Cl)cc(Cl)c2)c(Cl)c1)C(=O)O (racemic) [Example T275, 4-(3-chloro-4-(9-(3,5-dichlorobenzyl)-6-(1-methylcyclopropoxy)-9H-purin-8-yl)phenoxy)-2-methylbutanoic acid]
IC50 (DLD-1 BRCA2−/− cells; [1]): 126 nM

IC50 (DLD-1 cells; [2]): > 10000 nM
Compound: CC(CCOc1ccc(-c2nc3c(OC4(C)CC4)ncnc3n2Cc2cc(Cl)ccc2Cl)c(Cl)c1)C(=O)O (racemic) [Example T276, 4-(3-chloro-4-(9-(2,5-dichlorobenzyl)-6-(1-methylcyclopropoxy)-9H-purin-8-yl)phenoxy)-2-methylbutanoic acid]
IC50 (DLD-1 BRCA2−/− cells; [1]): 63.1 nM

IC50 (DLD-1 cells; [2]): > 10000 nM
Compound: CC(CCOc1ccc(-c2nc3c(OC4(C)CC4)ncnc3n2Cc2c(Cl)cccc2Cl)c(Cl)c1)C(=O)O (racemic) [Example T277, 4-(3-chloro-4-(9-(2,6-dichlorobenzyl)-6-(1-methylcyclopropoxy)-9H-purin-8-yl)phenoxy)-2-methylbutanoic acid]
IC50 (DLD-1 BRCA2−/− cells; [1]): 2000 nM

IC50 (DLD-1 cells; [2]): > 10000 nM
Compound: CC(CCOc1ccc(-c2nc3c(OC4(C)CC4)ncnc3n2Cc2ccccc2Br)c(Cl)c1)C(=O)O (racemic) [Example T278, 4-(4-(9-(2-bromobenzyl)-6-(1-methylcyclopropoxy)-9H-purin-8-yl)-3-chlorophenoxy)-2-methylbutanoic acid]
IC50 (DLD-1 BRCA2−/− cells; [1]): 316 nM

IC50 (DLD-1 cells; [2]): > 10000 nM
Compound: CC(CCOc1ccc(-c2nc3c(OC4(C)CC4)ncnc3n2Cc2cccc(Br)c2)c(Cl)c1)C(=O)O (racemic) [Example T279, 4-(4-(9-(3-bromobenzyl)-6-(1-methylcyclopropoxy)-9H-purin-8-yl)-3-chlorophenoxy)-2-methylbutanoic acid]
IC50 (DLD-1 BRCA2−/− cells; [1]): 200 nM

IC50 (DLD-1 cells; [2]): > 10000 nM
Compound: CC(CCOc1ccc(-c2nc3c(OC4(C)CC4)ncnc3n2Cc2cccc(I)c2)c(Cl)c1)C(=O)O (racemic) [Example T285, 4-(3-chloro-4-(9-(3-iodobenzyl)-6-(1-methylcyclopropoxy)-9H-purin-8-yl)phenoxy)-2-methylbutanoic acid]
IC50 (DLD-1 BRCA2−/− cells; [1]): 251 nM

IC50 (DLD-1 cells; [2]): > 3160 nM
Compound: CC(CCOc1cccc(-c2nc3c(OC4(C)CC4)ncnc3n2Cc2cccc(Cl)c2)c1Cl)C(=O)O (racemic) [Example T293, 4-(2-chloro-3-(9-(3-chlorobenzyl)-6-(1-methylcyclopropoxy)-9H-purin-8-yl)phenoxy)-2-methylbutanoic acid]
IC50 (DLD-1 BRCA2−/− cells; [1]): 31.6 nM

IC50 (DLD-1 cells; DLD-1, second proliferation column (c6), taken as DLD-1 BRCA2 wt): > 10000 nM
Compound: CC(OCCOc1ccc(-c2nc3c(OC4(C)CC4)ncnc3n2Cc2cccc(Cl)c2)c(Cl)c1)C(=O)O (racemic) [Example T305, rac-(R)-2-(2-(3-chloro-4-(9-(3-chlorobenzyl)-6-(1-methylcyclopropoxy)-9H-purin-8-yl)phenoxy)ethoxy)propanoic acid]
IC50 (DLD-1 BRCA2−/− cells; DLD-1, first proliferation column (c5), taken as DLD-1 BRCA2-/-): 794 nM

IC50 (DLD-1 cells; [4]): > 10000 nM
Compound: CC(CCOc1ccc(-c2nc3c(OC4(C)CC4)ncnc3n2Cc2cc(C(F)(F)F)ccc2F)c(Cl)c1)C(=O)O (racemic) [Example T395, 4-(3-chloro-4-(9-(2-fluoro-5-(trifluoromethyl)benzyl)-6-(1-methylcyclopropoxy)-9H-purin-8-yl)phenoxy)-2-methylbutanoic acid]
IC50 (DLD-1 BRCA2−/− cells; [3]): 100 nM

IC50 (DLD-1 cells; [4]): > 10000 nM
Compound: CC(CCOc1ccc(-c2nc3c(OC4(C)CC4)ncnc3n2Cc2cccc(C#N)c2)c(Cl)c1)C(=O)O (racemic) [Example T399, 4-(3-chloro-4-(9-(3-cyanobenzyl)-6-(1-methylcyclopropoxy)-9H-purin-8-yl)phenoxy)-2-methylbutanoic acid]
IC50 (DLD-1 BRCA2−/− cells; [3]): 316 nM

IC50 (DLD-1 cells; [4]): > 10000 nM
Compound: CC(CCOc1ccc(-c2nc3c(OC4(C)CC4)ncnc3n2Cc2ccccc2C#N)c(Cl)c1)C(=O)O (racemic) [Example T400, 4-(3-chloro-4-(9-(2-cyanobenzyl)-6-(1-methylcyclopropoxy)-9H-purin-8-yl)phenoxy)-2-methylbutanoic acid]
IC50 (DLD-1 BRCA2−/− cells; [3]): 251 nM

IC50 (DLD-1 cells; [4]): > 10000 nM
Compound: Cc1ccc(F)c(Cn2c(-c3ccc(OCCC(C)C(=O)O)cc3Cl)nc3c(OC4(C)CC4)ncnc32)c1 (racemic) [Example T417, 4-(3-chloro-4-(9-(2-fluoro-5-methylbenzyl)-6-(1-methylcyclopropoxy)-9H-purin-8-yl)phenoxy)-2-methylbutanoic acid]
IC50 (DLD-1 BRCA2−/− cells; [3]): 50.1 nM

IC50 (DLD-1 cells; [6]): > 3160 nM
Compound: CC(CCOc1ccc(-c2nc3c(OC4(C)CC4)ncnc3n2Cc2cc(C(F)(F)F)cc(C(F)(F)F)c2)c(Cl)c1)C(=O)O (racemic) [Example T533, 4-(4-(9-(3,5-bis(trifluoromethyl)benzyl)-6-(1-methylcyclopropoxy)-9H-purin-8-yl)-3-chlorophenoxy)-2-methylbutanoic acid]
IC50 (DLD-1 BRCA2−/− cells; [5]): 398 nM

IC50 (DLD-1 cells; [6]): > 10000 nM
Compound: CC(CCOc1ccc(-c2nc3c(OC4(C)CC4)ncnc3n2Cc2cccc(C(C)(F)F)c2)c(Cl)c1)C(=O)O (racemic) [Example T544, 4-(3-chloro-4-(9-(3-(1,1-difluoroethyl)benzyl)-6-(1-methylcyclopropoxy)-9H-purin-8-yl)phenoxy)-2-methylbutanoic acid]
IC50 (DLD-1 BRCA2−/− cells; [5]): 501 nM

IC50 (DLD-1 cells; [6]): > 10000 nM
Compound: CC(C)C(CCOc1ccc(-c2nc3c(OC4(C)CC4)ncnc3n2Cc2cccc(Cl)c2)c(Cl)c1)C(=O)O (racemic) [Example T566, 4-(3-chloro-4-(9-(3-chlorobenzyl)-6-(1-methylcyclopropoxy)-9H-purin-8-yl)phenoxy)-2-isopropylbutanoic acid]
IC50 (DLD-1 BRCA2−/− cells; [5]): 158 nM

IC50 (DLD-1 cells; [6]): > 10000 nM
Compound: Cc1cccc(C)c1Cn1c(-c2ccc(OCCC(C)C(=O)O)cc2Cl)nc2c(OC3(C)CC3)ncnc21 (racemic) [Example T571, 4-(3-chloro-4-(9-(2,6-dimethylbenzyl)-6-(1-methylcyclopropoxy)-9H-purin-8-yl)phenoxy)-2-methylbutanoic acid]
IC50 (DLD-1 BRCA2−/− cells; [5]): 1260 nM

IC50 (DLD-1 cells; DLD-1, second proliferation column, DLD-1 BRCA2 wt control): > 10000 nM
Compound: CC(CCOc1ccc(-c2nc3c(OC4(C)CC4)ncnc3n2Cc2ccccc2C2CC2)c(Cl)c1)C(=O)O (racemic) [Example T598, 4-(3-chloro-4-(9-(2-cyclopropylbenzyl)-6-(1-methylcyclopropoxy)-9H-purin-8-yl)phenoxy)-2-methylbutanoic acid]
IC50 (DLD-1 BRCA2−/− cells; DLD-1, first proliferation column, DLD-1 BRCA2-/-): 631 nM

— patent publication US20250195530A1, “POLQ INHIBITORS” (ASTRAZENECA AB, priority 2022, published 2025)
